Reference: patent US20060069132A1, “Azolecarboxamide herbicides” (priority 2004, published 2006)

Assays:
barnyardgrass [1] = assay: Test A pre-/postemergence herbicide test; type: in vivo, Echinochloa crus-galli
Method in brief: (§1)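 Greenhouse injury scoring (0–100, complete control = 100) at approximately ten days follows simultaneous pre- and postemergence application. Soil received a directed spray after seeding; seedlings of 2–10 cm at the one- to two-leaf stage were sprayed to runoff.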

large crabgrass [2] = assay: Test A pre-/postemergence herbicide test; type: in vivo, Digitaria sanguinalis
Method in brief: as §1

giant foxtail [3] = assay: Test A pre-/postemergence herbicide test; type: in vivo, Setaria faberi
Method in brief: as §1

morningglory [4] = assay: Test A pre-/postemergence herbicide test; type: in vivo, Ipomoea spp.
Method in brief: as §1

redroot pigweed = assay: Test A pre-/postemergence herbicide test; type: in vivo, Amaranthus retroflexus
Method in brief: as §1

velvetleaf [5] = assay: Test A pre-/postemergence herbicide test; type: in vivo, Abutilon theophrasti
Method in brief: as §1

barnyardgrass [6] = assay: Test B pre-/postemergence herbicide test; type: in vivo, Echinochloa crus-galli; details: for Barnyardgrass plant response rating: postemergence, visual rating, scale 0 (no effect) to 100 (complete control)
Method in brief: (§2)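 Formulation: non-phytotoxic solvent mix with surfactant. Timing: preemergence on seed and postemergence on 2–18 cm plants, applied concurrently. Readout after 13–15 d greenhouse: visual 0–100 control rating against controls.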

Surinam grass = assay: Test B pre-/postemergence herbicide test; type: in vivo, Urochloa decumbens; details: for Surinam Grass plant response rating: postemergence, visual rating, scale 0 (no effect) to 100 (complete control)
Method in brief: (§3)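 Herbicidal effect was judged by eye on a 0–100 scale after plants stood 13 to 15 days in the greenhouse following pre- or postemergence treatment with surfactant-containing formulations.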

cocklebur = assay: Test B pre-/postemergence herbicide test; type: in vivo, Xanthium strumarium; details: for Cocklebur plant response rating: postemergence, visual rating, scale 0 (no effect) to 100 (complete control)
Method in brief: as §2

corn = assay: Test B pre-/postemergence herbicide test; type: in vivo, Zea mays; details: for Corn plant response rating: postemergence, visual rating, scale 0 (no effect) to 100 (complete control)
Method in brief: as §3

large crabgrass [7] = assay: Test B pre-/postemergence herbicide test; type: in vivo, Digitaria sanguinalis; details: for Crabgrass, Large plant response rating: postemergence, visual rating, scale 0 (no effect) to 100 (complete control)
Method in brief: as §3

giant foxtail [8] = assay: Test B pre-/postemergence herbicide test; type: in vivo, Setaria faberi; details: for Foxtail, Giant plant response rating: postemergence, visual rating, scale 0 (no effect) to 100 (complete control)
Method in brief: as §3

lambsquarters = assay: Test B pre-/postemergence herbicide test; type: in vivo, Chenopodium album; details: for Lambsquarters plant response rating: postemergence, visual rating, scale 0 (no effect) to 100 (complete control)
Method in brief: as §3

morningglory [9] = assay: Test B pre-/postemergence herbicide test; type: in vivo, Ipomoea coccinea; details: for Morningglory plant response rating: postemergence, visual rating, scale 0 (no effect) to 100 (complete control)
Method in brief: as §2

pigweed = assay: Test B pre-/postemergence herbicide test; type: in vivo, Amaranthus retroflexus; details: for Pigweed plant response rating: postemergence, visual rating, scale 0 (no effect) to 100 (complete control)
Method in brief: as §3

rice [10] = assay: Test B pre-/postemergence herbicide test; type: in vivo, Oryza sativa; details: preemergence
Method in brief: as §3

velvetleaf [11] = assay: Test B pre-/postemergence herbicide test; type: in vivo, Abutilon theophrasti; details: for Velvetleaf plant response rating: postemergence, visual rating, scale 0 (no effect) to 100 (complete control)
Method in brief: as §3

blackgrass = assay: Test B postemergence herbicide test; type: in vivo, Alopecurus myosuroides; details: postemergence, visual rating, scale 0 (no effect) to 100 (complete control)
Method in brief: (§4)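 Scale 0–100: zero equals no visible effect, 100 complete control, judged by eye relative to controls. Timing: 13 to 15 days in greenhouse post-treatment. Growth stage at spraying: two leaves (paddy) or one to four leaves, 2–18 cm (postemergence).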

wheat = assay: Test B postemergence herbicide test; type: in vivo, Triticum aestivum; set-up: key to Wheat plant response rating: 0 = no effect, 100 = complete control; details: postemergence, visual rating, scale 0 (no effect) to 100 (complete control)
Method in brief: (§5)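 Each value is a visual 0–100 response rating taken against controls 13 to 15 days after treatment in the greenhouse. Plants received formulated chemical postemergence at the 1- to 4-leaf stage or, in flooded paddy, at the 2-leaf stage.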

wild oat = assay: Test B postemergence herbicide test; type: in vivo, Avena fatua; details: postemergence, visual rating, scale 0 (no effect) to 100 (complete control)
Method in brief: as §5

rice [12] = assay: Test B flooded paddy test; type: in vivo, Oryza sativa; details: 1000 g ai/ha, visual rating, scale 0 to 100 (0 no effect, 100 complete control), 13 to 15 days
Method in brief: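 Treated at 2-leaf (paddy) or 1–4-leaf, 2–18 cm (postemergence); greenhouse 13–15 d; visual score vs control, 0 none to 100 complete control; dash = not tested.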

[13] = system: small flower umbrella sedge; assay: Test B flooded paddy test; type: in vivo, Cyperus difformis; details: 1000 g ai/ha, visual rating, scale 0 to 100 (0 no effect, 100 complete control), 13 to 15 days
Method in brief: as §4

ducksalad = assay: Test B flooded paddy test; type: in vivo, Heteranthera limosa; details: 1000 g ai/ha, visual rating, scale 0 to 100 (0 no effect, 100 complete control), 13 to 15 days
Method in brief: as §4

barnyardgrass [14] = assay: Test B flooded paddy test; type: in vivo, Echinochloa crus-galli; details: 1000 g ai/ha, visual rating, scale 0 to 100 (0 no effect, 100 complete control), 13 to 15 days
Method in brief: as §4

[15] = Postemergence, 500 g ai/ha, 0 to 100 scale, 0 no effect, 100 complete control
[16] = Postemergence, 2000 g ai/ha, 0 to 100 scale, 0 no effect, 100 complete control
[17] = Preemergence, 2000 g ai/ha, visual rating, 0 to 100 scale (0 no effect, 100 complete control)
[18] = preemergence, 500 g ai/ha, visual injury, 0 to 100 scale (0 no effect, 100 complete control)
[19] = 125 g ai/ha, 0 = no effect, 100 = complete control, preemergence
[20] = 500 g ai/ha, visual rating 0-100, 0 no effect, 100 complete control, preemergence

Which results are given for `COC(=O)c1cccc(NC(=O)c2sc(C(C)(C)C)nc2C)c1` [Compound 197]?
Barnyardgrass plant response rating (barnyardgrass [1]; [15]): 10; Plant response rating, Barnyardgrass (barnyardgrass [1]; [16]): 0; Barnyardgrass plant response rating (barnyardgrass [1]; [17]): 0; Barnyardgrass plant response rating (barnyardgrass [1]; [18]): 0; Crabgrass, Large plant response rating (large crabgrass [2]; [15]): 5; Plant response rating, Crabgrass, Large (large crabgrass [2]; [16]): 10; Crabgrass, Large plant response rating (large crabgrass [2]; [17]): 0; Crabgrass, Large plant response rating (large crabgrass [2]; [18]): 0; Foxtail, Giant plant response rating (giant foxtail [3]; [15]): 0; Plant response rating, Foxtail, Giant (giant foxtail [3]; [16]): 5; Foxtail, Giant plant response rating (giant foxtail [3]; [17]): 0; Foxtail, Giant plant response rating (giant foxtail [3]; [18]): 0; Morningglory plant response rating (morningglory [4]; [15]): 0; Plant response rating, Morningglory (morningglory [4]; [16]): 0; Morningglory plant response rating (morningglory [4]; [17]): 5; Morningglory plant response rating (morningglory [4]; [18]): 0; Pigweed plant response rating (redroot pigweed; [15]): 0; Plant response rating, Pigweed (redroot pigweed; [16]): 5; Pigweed plant response rating (redroot pigweed; [17]): 0; Pigweed plant response rating (redroot pigweed; [18]): 0; Velvetleaf plant response rating (velvetleaf [5]; [15]): 5; Plant response rating, Velvetleaf (velvetleaf [5]; [16]): 5; Velvetleaf plant response rating (velvetleaf [5]; [17]): 10; Velvetleaf plant response rating (velvetleaf [5]; [18]): 0; Barnyardgrass plant response rating (0 to 100 scale) (barnyardgrass [6]; [19]): 0; Plant response rating, Barnyardgrass (barnyardgrass [6]; [20]): 10; Barnyardgrass plant response rating (barnyardgrass [6]; 125 g ai/ha): 0; Barnyardgrass plant response rating (barnyardgrass [6]; 500 g ai/ha): 10; Surinam Grass plant response rating (0 to 100 scale) (Surinam grass; [19]): 0; Plant response rating, Surinam Grass (Surinam grass; [20]): 20; Surinam Grass plant response rating (Surinam grass; 125 g ai/ha): 10; Surinam Grass plant response rating (Surinam grass; 500 g ai/ha): 20; Cocklebur plant response rating (0 to 100 scale) (cocklebur; [19]): 0; Plant response rating, Cocklebur (cocklebur; [20]): 0; Cocklebur plant response rating (cocklebur; 125 g ai/ha): 0; Cocklebur plant response rating (cocklebur; 500 g ai/ha): 10; Corn plant response rating (0 to 100 scale) (corn; [19]): 0; Plant response rating, Corn (corn; [20]): 0; Corn plant response rating (corn; 125 g ai/ha): 10; Corn plant response rating (corn; 500 g ai/ha): 20; Crabgrass, Large plant response rating (0 to 100 scale) (large crabgrass [7]; [19]): 0; Plant response rating, Crabgrass, Large (large crabgrass [7]; [20]): 0; Crabgrass, Large plant response rating (large crabgrass [7]; 125 g ai/ha): 0; Crabgrass, Large plant response rating (large crabgrass [7]; 500 g ai/ha): 0; Foxtail, Giant plant response rating (0 to 100 scale) (giant foxtail [8]; [19]): 0; Plant response rating, Foxtail, Giant (giant foxtail [8]; [20]): 0; Foxtail, Giant plant response rating (giant foxtail [8]; 125 g ai/ha): 0; Foxtail, Giant plant response rating (giant foxtail [8]; 500 g ai/ha): 0; Lambsquarters plant response rating (0 to 100 scale) (lambsquarters; [19]): 0; Plant response rating, Lambsquarters (lambsquarters; [20]): 0; Lambsquarters plant response rating (lambsquarters; 125 g ai/ha): 0; Lambsquarters plant response rating (lambsquarters; 500 g ai/ha): 0; Morningglory plant response rating (0 to 100 scale) (morningglory [9]; [19]): 0; Plant response rating, Morningglory (morningglory [9]; [20]): 0; Morningglory plant response rating (morningglory [9]; 125 g ai/ha): 0; Morningglory plant response rating (morningglory [9]; 500 g ai/ha): 0; Pigweed plant response rating (0 to 100 scale) (pigweed; [19]): 0; Plant response rating, Pigweed (pigweed; [20]): 0; Pigweed plant response rating (pigweed; 125 g ai/ha): 0; Pigweed plant response rating (pigweed; 500 g ai/ha): 10; Rice plant response rating (0 to 100 scale) (rice [10]; 125 g ai/ha, 0 = no effect, 100 = complete control): 0; Plant response rating, Rice (rice [10]; 500 g ai/ha, visual rating 0-100, 0 no effect, 100 complete control): 0; Velvetleaf plant response rating (0 to 100 scale) (velvetleaf [11]; [19]): 0; Plant response rating, Velvetleaf (velvetleaf [11]; [20]): 0; Velvetleaf plant response rating (velvetleaf [11]; 125 g ai/ha): 0; Velvetleaf plant response rating (velvetleaf [11]; 500 g ai/ha): 20; Blackgrass plant response rating (blackgrass; 125 g ai/ha): 0; Blackgrass plant response rating (blackgrass; 500 g ai/ha): 0; Wheat plant response rating (wheat; 125 g ai/ha): 0; Wheat plant response rating (wheat; 500 g ai/ha): 10; Oat, Wild plant response rating (wild oat; 125 g ai/ha): 10; Oat, Wild plant response rating (wild oat; 500 g ai/ha): 30; Rice plant response rating (rice [12]): 0; Sedge, Umbrella plant response rating [13]: 0; Ducksalad plant response rating (ducksalad): 0; Barnyardgrass plant response rating (barnyardgrass [14]): 0
